# Results reported in patent publication US9617256B2 (priority 2007, dated 2017).
# Assays:
# [1] = system: ASAU001 (laboratory strain of S. aureus, ATCC29213); experiment: MIC broth microdilution, ASAU001; format: cell-based; conditions: Staphylococcus aureus, ATCC29213, read-out: MIC ASAU001
# Procedure, shortened: (§1)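 Minimum inhibitory concentrations followed CLSI broth microdilution guidelines: cation-adjusted Mueller-Hinton broth, 2-fold serial drug dilutions, final inoculum 3×10^5–7×10^5 CFU/mL, ambient air at 35° C. for 18-24 hours. Quality-control strains and levofloxacin monitored performance.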
# [2] = system: AABA1060 (clinical isolate of Acinetobacter baumannii); experiment: MIC broth microdilution, AABA1060; format: cell-based; conditions: Acinetobacter baumannii, read-out: MIC AABA1060
# Procedure, shortened: as §1
# [3] = system: AECO063 (ATCC25922 bearing an acrAB mutation); experiment: microbe, parasite or virus in culture; format: cell-based, E. coli; conditions: Escherichia coli, ATCC25922, read-out: MIC AECO063
# Procedure, shortened: as §1
# APAE001 (ATCC27853) = experiment: MIC broth microdilution, APAE001; format: cell-based, P. aeruginosa; conditions: Pseudomonas aeruginosa, ATCC27853, read-out: MIC APAE001, APAE001 is ATCC27853
# Procedure, shortened: as §1
# [4] = system: APAE006 in the presence of 8 micrograms per milliliter of polymyxin B nonapeptide; format: cell-based, P. aeruginosa; conditions: in the presence of 8 micrograms per milliliter of polymyxin B nonapeptide
# Procedure, shortened: (§2)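 Broth microdilution (CLSI); CA-MHB; 3×10^5–7×10^5 CFU/mL final; 2-fold dilutions; 35° C., ambient air, 18-24 h. APAE006 lacks all active efflux pumps.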
# AECO001 HSA AGP = experiment: MIC broth microdilution, AECO001 HSA AGP; format: cell-based, E. coli; conditions: Escherichia coli
# Procedure, shortened: as §1
# [5] = system: APAE006 (strain of P. aeruginosa in which all efflux pumps are inactivated); experiment: microbe, parasite or virus in culture; format: cell-based; conditions: Pseudomonas aeruginosa, read-out: MIC APAE006, P. aeruginosa, all efflux pumps inactivated
# Procedure, shortened: as §2
# AECO001 (ATCC25922) = experiment: MIC broth microdilution, AECO001; format: cell-based, E. coli; conditions: Escherichia coli, ATCC25922, read-out: MIC AECO001
# Procedure, shortened: as §1
Compound,MIC [1] [µg/mL],MIC [2] [µg/mL],MIC [3] [µg/mL],MIC (APAE001 (ATCC27853)) [µg/mL],MIC APAE006 + PMBN [4],MIC (AECO001 HSA AGP) [µg/mL],MIC [5] [µg/mL],MIC (AECO001 (ATCC25922)) [µg/mL]
CC(C)(O)[C@H](NC(=O)c1ccc(/C=C/C#Cc2ccc(CN3CCOCC3)cc2)cc1)C(=O)NO [Example 110-7],> 64,< 2,< 2,2 to 16,A (MIC's of 2.0 μg/mL or less = A),2 to 16,< 2,< 2
C[C@@H](O)[C@H](NC(=O)c1ccc(C#CC#Cc2ccc(C(F)(F)F)cc2)cc1)C(=O)NO [Example 82-6],16 to 64,16 to 64,< 2,2 to 16,A (MIC's of 2.0 μg/mL or less = A),2 to 16,2 to 16,< 2
C[C@@H](NCC(=O)NC[C@H](NC(=O)c1ccc(C#C/C=C/c2ccccc2)cc1)C(=O)NO)c1ccccc1 [Example 105-4],16 to 64,16 to 64,< 2,16 to 64,A (MIC's of 2.0 μg/mL or less = A),2 to 16,2 to 16,< 2
"C[C@@H](N)[C@H](NC(=O)c1ccc(CCc2ccc(CN3CCOCC3)cc2)cc1)C(=O)NO [Example 136-1, N-((2S,3R)-3-amino-1-(hydroxyamino)-1-oxobutan-2-yl)-4-(4-(morpholinomethyl)phenethyl)benzamide]",16 to 64,16 to 64,< 2,2 to 16,A (MIC's of 2.0 μg/mL or less = A),16 to 64,< 2,2 to 16
C[C@@H](N)[C@H](NC(=O)c1ccc(C#Cc2ccc(CNCC(C)(C)C)cc2)cc1)C(=O)NO [Example 118-4],> 64,16 to 64,< 2,< 2,A (MIC's of 2.0 μg/mL or less = A),2 to 16,< 2,< 2
"C[C@@H](N)[C@H](NC(=O)c1ccc(C#Cc2ccc(CN3CCOCC3)cc2)cc1)C(=O)O [Example 117-2, (2S,3R)-3-Amino-2-[4-(4-morpholin-4-ylmethyl-phenylethynyl)-benzoylamino]-butyric acid]",> 64,> 64,> 64,> 64,C (MIC's of greater than 16.0 μg/mL to 64.0 μg/mL = C),> 64,> 64,> 64
C[C@@H](N)[C@H](NC(=O)c1ccc(C#Cc2ccc(CN3CCc4[nH]ncc4C3)cc2)cc1)C(=O)NO [Example 118-2],16 to 64,2 to 16,< 2,< 2,A (MIC's of 2.0 μg/mL or less = A),16 to 64,< 2,< 2
C[C@@H](N)[C@H](NC(=O)c1ccc(C#CC#Cc2ccncc2)cc1)C(=O)NO [Example 88-2],2 to 16,2 to 16,< 2,< 2,A (MIC's of 2.0 μg/mL or less = A),2 to 16,< 2,< 2
"O=C(NC(C(=O)NO)C1CCOCC1)c1ccc(C#Cc2ccc(CN3CCOCC3)cc2)cc1 (centres unmarked) [Example 67-5, N-[hydroxycarbamoyl-(tetrahydro-pyran-4-yl)-methyl]-4-(4-morpholin-4-ylmethyl-phenylethynyl)-benzamide]",> 64,16 to 64,< 2,2 to 16,A (MIC's of 2.0 μg/mL or less = A),2 to 16,< 2,< 2
C[C@@H](N)[C@H](NC(=O)c1ccc(C#CC#CC2CCCCC2)cc1)C(=O)NO [Example 91-4],2 to 16,2 to 16,< 2,2 to 16,A (MIC's of 2.0 μg/mL or less = A),2 to 16,< 2,< 2
"C[C@@H](O)[C@H](NC(=O)c1ccc(C#C/C=C/c2ccc(CNC3CC3)cc2)cc1)C(=O)NO [Example 102-1, 4-[(E)-4-(4-Cyclopropylaminomethyl-phenyl)-but-3-en-1-ynyl]-N-((1S,2R)-2-hydroxy-1-hydroxycarbamoyl-propyl)-benzamide]",16 to 64,16 to 64,< 2,2 to 16,A (MIC's of 2.0 μg/mL or less = A),2 to 16,< 2,< 2
C[C@@H](O)[C@H](NC(=O)c1ccc(C#Cc2ccc(O)cc2)cc1)C(=O)NO [Example 133-12],16 to 64,16 to 64,< 2,< 2,A (MIC's of 2.0 μg/mL or less = A),2 to 16,< 2,< 2
C[C@@H](N)[C@H](NC(=O)c1ccc(/C=C/C#Cc2cccnc2)cc1)C(=O)NO [Example 114-9],16 to 64,2 to 16,< 2,< 2,A (MIC's of 2.0 μg/mL or less = A),2 to 16,< 2,2 to 16
"CCOCc1ccc(C#Cc2ccc(C(=O)N[C@H](C(=O)NO)[C@@H](C)N)cc2)cc1 [Example 120-1, N-((1S,2R)-2-Amino-1-hydroxycarbamoyl-propyl)-4-(4-ethoxymethyl-phenylethynyl)-benzamide]",16 to 64,2 to 16,< 2,< 2,A (MIC's of 2.0 μg/mL or less = A),2 to 16,< 2,< 2
C[C@@H](N)[C@H](NC(=O)c1ccc(C#Cc2ccc(CN3CCC(F)(F)C3)cc2)cc1)C(=O)NO [Example 118-3],16 to 64,2 to 16,< 2,2 to 16,A (MIC's of 2.0 μg/mL or less = A),2 to 16,< 2,< 2
C[C@@H](N)[C@H](NC(=O)c1ccc(C#Cc2ccc(CNCCF)cc2)cc1)C(=O)NO [Example 118-9],16 to 64,2 to 16,< 2,< 2,A (MIC's of 2.0 μg/mL or less = A),2 to 16,< 2,< 2
COC(C)[C@H](NC(=O)c1ccc(/C=C/C#Cc2ccc(CN3CCOCC3)cc2)cc1)C(=O)NO (some centres unmarked) [Example 110-6],> 64,2 to 16,< 2,2 to 16,A (MIC's of 2.0 μg/mL or less = A),2 to 16,< 2,< 2
CCOCc1ccc(C#C/C=C/c2ccc(C(=O)N[C@H](C(=O)NO)[C@@H](C)N)cc2)cc1 [Example 113-10],16 to 64,2 to 16,< 2,2 to 16,A (MIC's of 2.0 μg/mL or less = A),2 to 16,< 2,< 2
C[C@@H](N)[C@H](NC(=O)c1ccc(C#CC#Cc2cccc(F)c2)cc1)C(=O)NO [Example 82-5],2 to 16,2 to 16,< 2,< 2,A (MIC's of 2.0 μg/mL or less = A),2 to 16,< 2,< 2
